HELM strings list units from the 5' end as sugar, base in round brackets, then linkage (d deoxyribose, r ribose, m 2'-O-methyl, p phosphodiester). Strings are as the collection lists them; they lack the last nucleoside at the 3' end of the tested compound. [moe] = 2'-O-(2-methoxyethyl) (MOE); [sp] = phosphorothioate linkage; [m5C] = 5-methylcytosine
Target: SCN2A
Test: mouse, dose not given
Settings: ASO

Substance	3 h FOB score
RNA1{[moe](G)[sp].[moe]([m5C])p.[moe](A)p.[moe](T)p.[moe](G)p.d(T)[sp].d(A)[sp].d(A)[sp].d([m5C])[sp].d([m5C])[sp].d(T)[sp].d(T)[sp].d(T)[sp].d(A)[sp].d(T)[sp].[moe](A)p.[moe]([m5C])p.[moe](A)[sp].[moe](T)}$$$$ (last 3' nucleoside missing)	0 score 0-7
RNA1{[moe](T)[sp].[moe](G)p.[moe](G)p.[moe]([m5C])p.[moe](T)p.d(A)[sp].d(T)[sp].d(A)[sp].d([m5C])[sp].d(T)[sp].d([m5C])[sp].d(A)[sp].d(T)[sp].d(T)[sp].d(G)[sp].[moe]([m5C])p.[moe](T)p.[moe]([m5C])[sp].[moe](T)}$$$$ (last 3' nucleoside missing)	1 score 0-7
RNA1{[moe](T)[sp].[moe]([m5C])p.[moe](A)p.[moe](T)p.[moe](G)p.[moe]([m5C])p.d(A)[sp].d(T)[sp].d(A)[sp].d(A)[sp].d(T)[sp].d([m5C])[sp].d([m5C])[sp].d([m5C])[sp].d(A)[sp].d(T)[sp].[moe](T)p.[moe](A)[sp].[moe](T)}$$$$ (last 3' nucleoside missing)	0 score 0-7
RNA1{[moe]([m5C])[sp].[moe](A)p.[moe](T)p.[moe](G)p.d([m5C])[sp].d(A)[sp].d(T)[sp].d(A)[sp].d(A)[sp].d(T)[sp].d([m5C])[sp].d([m5C])[sp].d([m5C])[sp].d(A)[sp].[moe](T)p.[moe](T)p.[moe](A)p.[moe](T)[sp].[moe](A)}$$$$ (last 3' nucleoside missing)	0 score 0-7
RNA1{[moe]([m5C])[sp].[moe]([m5C])p.[moe](A)p.[moe]([m5C])p.d(G)[sp].d(A)[sp].d([m5C])[sp].d(A)[sp].d(T)[sp].d(A)[sp].d(T)[sp].d(T)[sp].d(T)[sp].d(T)[sp].[moe](T)p.[moe]([m5C])p.[moe](T)p.[moe](A)[sp].[moe]([m5C])}$$$$ (last 3' nucleoside missing)	1 score 0-7
RNA1{[moe](A)[sp].[moe](T)p.[moe]([m5C])p.[moe](A)p.d([m5C])[sp].d(T)[sp].d(T)[sp].d(T)[sp].d([m5C])[sp].d(A)[sp].d(T)[sp].d([m5C])[sp].d([m5C])[sp].d(A)[sp].[moe]([m5C])p.[moe](G)p.[moe](A)p.[moe]([m5C])[sp].[moe](A)}$$$$ (last 3' nucleoside missing)	1 score 0-7
RNA1{[moe]([m5C])[sp].[moe](A)p.[moe](T)p.[moe](A)p.[moe](T)p.d(T)[sp].d(T)[sp].d(T)[sp].d(T)[sp].d([m5C])[sp].d(T)[sp].d(A)[sp].d([m5C])[sp].d(A)[sp].d([m5C])[sp].[moe](T)p.[moe](G)p.[moe]([m5C])[sp].[moe](T)}$$$$ (last 3' nucleoside missing)	2 score 0-7
RNA1{[moe]([m5C])[sp].[moe]([m5C])p.[moe](A)p.[moe](T)p.[moe](T)p.[moe](T)p.d([m5C])[sp].d(T)[sp].d(A)[sp].d(T)[sp].d(A)[sp].d(A)[sp].d([m5C])[sp].d(T)[sp].d([m5C])[sp].d(A)[sp].[moe](G)p.[moe]([m5C])[sp].[moe](A)}$$$$ (last 3' nucleoside missing)	0 score 0-7
RNA1{[moe](G)[sp].[moe](A)p.[moe]([m5C])p.[moe]([m5C])p.d(G)[sp].d(T)[sp].d([m5C])[sp].d(T)[sp].d([m5C])[sp].d(T)[sp].d(T)[sp].d(T)[sp].d([m5C])[sp].d(T)[sp].[moe](T)p.[moe](A)p.[moe](T)p.[moe](T)[sp].[moe](T)}$$$$ (last 3' nucleoside missing)	0 score 0-7
RNA1{[moe](A)[sp].[moe](T)p.[moe]([m5C])p.[moe](A)p.[moe](T)p.[moe](G)p.d([m5C])[sp].d(A)[sp].d(T)[sp].d(A)[sp].d(A)[sp].d(T)[sp].d([m5C])[sp].d([m5C])[sp].d([m5C])[sp].d(A)[sp].[moe](T)p.[moe](T)[sp].[moe](A)}$$$$ (last 3' nucleoside missing)	0 score 0-7
RNA1{[moe](T)[sp].[moe]([m5C])p.[moe](T)p.[moe](G)p.[moe]([m5C])p.d(A)[sp].d(T)[sp].d(G)[sp].d(T)[sp].d(A)[sp].d(A)[sp].d([m5C])[sp].d([m5C])[sp].d(T)[sp].d(T)[sp].[moe](T)p.[moe](A)p.[moe](T)[sp].[moe](A)}$$$$ (last 3' nucleoside missing)	0 score 0-7
RNA1{[moe](G)[sp].[moe](A)p.[moe]([m5C])p.[moe]([m5C])p.d(A)[sp].d([m5C])[sp].d(G)[sp].d([m5C])[sp].d(T)[sp].d(T)[sp].d(A)[sp].d([m5C])[sp].d(A)[sp].d(T)[sp].[moe]([m5C])p.[moe](A)p.[moe](A)p.[moe](A)[sp].[moe]([m5C])}$$$$ (last 3' nucleoside missing)	4 score 0-7
RNA1{[moe](A)[sp].[moe]([m5C])p.[moe](A)p.[moe](T)p.[moe](A)p.[moe](T)p.d(T)[sp].d(T)[sp].d(T)[sp].d(T)[sp].d([m5C])[sp].d(T)[sp].d(A)[sp].d([m5C])[sp].d(A)[sp].d([m5C])[sp].[moe](T)p.[moe](G)[sp].[moe]([m5C])}$$$$ (last 3' nucleoside missing)	0 score 0-7
RNA1{[moe]([m5C])[sp].[moe]([m5C])p.[moe](G)p.[moe](A)p.d(A)[sp].d(T)[sp].d(T)[sp].d([m5C])[sp].d(T)[sp].d(A)[sp].d(T)[sp].d(T)[sp].d(T)[sp].d(T)[sp].[moe](A)p.[moe](T)p.[moe](A)p.[moe](A)[sp].[moe](A)}$$$$ (last 3' nucleoside missing)	0 score 0-7
RNA1{[moe](A)[sp].[moe](A)p.[moe](G)p.[moe](T)p.[moe](A)p.d(G)[sp].d(T)[sp].d(A)[sp].d([m5C])[sp].d([m5C])[sp].d(A)[sp].d(T)[sp].d(T)[sp].d([m5C])[sp].d([m5C])[sp].[moe]([m5C])p.[moe](A)p.[moe](T)[sp].[moe]([m5C])}$$$$ (last 3' nucleoside missing)	0 score 0-7
RNA1{[moe]([m5C])[sp].[moe](T)p.[moe](G)p.[moe]([m5C])p.[moe](A)p.[moe](T)p.d(G)[sp].d(T)[sp].d(A)[sp].d(A)[sp].d([m5C])[sp].d([m5C])[sp].d(T)[sp].d(T)[sp].d(T)[sp].d(A)[sp].[moe](T)p.[moe](A)[sp].[moe]([m5C])}$$$$ (last 3' nucleoside missing)	0 score 0-7
RNA1{[moe](A)[sp].[moe](T)p.[moe](G)p.[moe](T)p.[moe](A)p.d(A)[sp].d(T)[sp].d([m5C])[sp].d(A)[sp].d([m5C])[sp].d(T)[sp].d(T)[sp].d(T)[sp].d([m5C])[sp].d(A)[sp].[moe](T)p.[moe]([m5C])p.[moe]([m5C])[sp].[moe](A)}$$$$ (last 3' nucleoside missing)	0 score 0-7
RNA1{[moe](G)[sp].[moe]([m5C])p.[moe](A)p.[moe](T)p.d(A)[sp].d(T)[sp].d(T)[sp].d([m5C])[sp].d(T)[sp].d(A)[sp].d(A)[sp].d([m5C])[sp].d(A)[sp].d(T)[sp].[moe](G)p.[moe](G)p.[moe](T)p.[moe]([m5C])[sp].[moe](T)}$$$$ (last 3' nucleoside missing)	1.67 score 0-7
